Results: ChEMBL document CHEMBL1152952, “Synthesis and pharmacological evaluation of 1,2,3,4-tetrahydropyrazino[1,2-a]indole and 2-[(phenylmethylamino)methyl]-1H-indole analogues as novel melatoninergic ligands” (Bioorg Med Chem, 2009)
Active and inactive are the calls of the source. The calls are words filed in the database; no cut-off is given here.

Legend:
[1] = target: T1, Melatonin receptor type 1A (Homo sapiens, UniProt P48039); experiment: Displacement of 2-[125I]iodomelatonin from human MT1 receptor expressed in CHO cells by gamma counting; assay type: cell-based
[2] = target: T2, Melatonin receptor type 1B (Homo sapiens, UniProt P49286); experiment: Displacement of 2-[125I]iodomelatonin from human MT2 receptor expressed in CHO cells by gamma counting; assay type: cell-based
T2 sequence (P49286 whole entry): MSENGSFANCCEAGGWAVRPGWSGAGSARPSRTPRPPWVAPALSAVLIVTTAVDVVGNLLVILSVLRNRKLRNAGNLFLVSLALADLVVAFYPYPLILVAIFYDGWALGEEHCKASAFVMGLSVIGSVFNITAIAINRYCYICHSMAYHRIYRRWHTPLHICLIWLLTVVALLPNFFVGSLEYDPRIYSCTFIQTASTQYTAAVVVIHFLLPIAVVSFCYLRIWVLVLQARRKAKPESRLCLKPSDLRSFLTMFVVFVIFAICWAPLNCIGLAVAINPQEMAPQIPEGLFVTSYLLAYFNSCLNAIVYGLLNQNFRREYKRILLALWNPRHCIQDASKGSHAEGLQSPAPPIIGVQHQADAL

Homo sapiens = species on record: Homo sapiens; experiment: Selectivity ratio of Ki for human MT1 receptor to Ki for human MT2 receptor
[3] = target: T1, Melatonin receptor type 1A; experiment: Agonist activity at human MT1 receptor expressed in CHO cells assessed as inhibition of forskolin-induced cAMP accumulation at 10 nM; assay type: functional, cell-based
[4] = target: T3, Melatonin receptor type 1B (Homo sapiens) (UniProt P49286); experiment: Intrinsic activity at human MT2 receptor expressed in CHO cells assessed as inhibition of forskolin-induced cAMP accumulation at 10 nM; assay type: functional, cell-based
T3 sequence (whole entry): T2 sequence (P49286 whole entry)

[5] = target: T1, Melatonin receptor type 1A; experiment: Agonist activity at human MT1 receptor expressed in CHO cells assessed as inhibition of forskolin-induced cAMP accumulation; assay type: functional, cell-based
[6] = target: T1, Melatonin receptor type 1A; experiment: Agonist activity at human MT1 receptor expressed in CHO cells assessed as inhibition of forskolin-induced cAMP accumulation at 1 uM; assay type: functional, cell-based

T1 sequence (P48039 whole entry): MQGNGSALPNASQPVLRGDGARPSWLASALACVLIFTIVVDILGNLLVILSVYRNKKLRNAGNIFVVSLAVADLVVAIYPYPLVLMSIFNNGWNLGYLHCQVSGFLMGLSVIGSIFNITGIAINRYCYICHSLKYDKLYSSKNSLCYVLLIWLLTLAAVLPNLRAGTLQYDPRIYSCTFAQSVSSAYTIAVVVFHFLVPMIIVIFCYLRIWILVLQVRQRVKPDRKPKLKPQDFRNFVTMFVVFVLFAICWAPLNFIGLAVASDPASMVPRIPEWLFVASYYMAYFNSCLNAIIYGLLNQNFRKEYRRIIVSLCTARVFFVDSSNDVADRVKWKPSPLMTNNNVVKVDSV

| Ki ([1]; read-out: pKi (converted)) [nM] | Ki ([2]; read-out: pKi (converted)) [nM] | Ratio Ki (Homo sapiens) | SMILES | further results |
| --- | --- | --- | --- | --- |
| 257 | 42.7 | 6 | COc1ccc2[nH]c(CN(C)c3ccc(Cl)cc3)c(CCNC(C)=O)c2c1 |  |
| 5620 | 891 | 6 | COc1ccc2c(c1)c(CCNC(C)=O)c1n2CCCN(C)C1 |  |
|  |  |  | COc1ccc(N(C)Cc2[nH]c3ccc(OC)cc3c2CCNC(C)=O)cc1 | Ki ([1]; read-out: Ki): 8 nM; Ki ([2]; read-out: Ki): 9 nM |
|  |  |  | COc1ccc2[nH]c(CN(C)c3ccc(C(F)(F)F)cc3)c(CCNC(C)=O)c2c1 | Ki ([1]; read-out: Ki): 111 nM; Ki ([2]; read-out: Ki): 63 nM |
| 11.7 | 7.76 |  | COc1ccc2c(c1)c(CCNC(C)=O)c1n2CCN(C)C1 |  |
| 1290 | 661 |  | COc1ccc2[nH]c(CN(C)Cc3ccccc3)c(CCNC(C)=O)c2c1 |  |
| 257 | 85.1 |  | CCCC(=O)NCCc1c2n(c3ccccc13)CCN(C)C2 |  |
| 6.61 | 6.92 |  | CCCC(=O)NCCc1c2n(c3ccc(OC)cc13)CCN(C)C2 | inhibition [3]: 12%; Activity [4]: inactive; IC50 [5]: 3.14 nM |
|  |  | 4.4 | COc1ccc2c(c1)CC1Cn3c(c(CCNC(C)=O)c4cc(OC)ccc43)CN21 (centres undefined) |  |
| 1000 | 224 |  | CCN(C)Cc1[nH]c2ccc(OC)cc2c1CCNC(C)=O |  |
| 15.5 | 2.29 | 8 | COc1ccc2[nH]c(CN(C)c3ccccc3)c(CCNC(C)=O)c2c1 | Activity [4]: inactive; inhibition [6]: 60% |
